According to patent US9091804B2, “Polymer film, and optically-compensatory film, polarizer and liquid-crystal display device comprising the same” (FUJIFILM Corporation, priority 2004, dated 2015):

What was measured:
physchem = conditions: DMSO/water=7/3 solvent system
[1] = solubility in 1.5 mol/liter aqueous NaOH at 55° C. (visual); conditions: 1.5 mol/liter NaOH at 55° C., visual observation

## OC(c1ccccc1)(c1ccccc1)c1ccccc1 [D-7]
physchem
  pKa: > 14
[1]
  Solubility: <1%

## CN(C(=O)c1ccccc1)c1ccccc1 [FA-1]
physchem
  pKa: > 14
[1]
  Solubility: <1%

## CCN(C(=O)C1CCCCC1)C1CCCCC1 [FB-2]
physchem
  pKa: > 14
[1]
  Solubility: <1%

## CCN(CC)S(=O)(=O)c1ccc(C)cc1 [A-42]
physchem
  pKa: > 14
[1]
  Solubility: <1%

## O=C(C1CCCCC1)N(C1CCCCC1)C1CCCCC1 [FB-6]
physchem
  pKa: > 14
[1]
  Solubility: <1%
